The term Ki denotes the dissociation constant of the complex between target and ligand, obtained from inhibition or displacement. By IC50 is commonly meant the concentration needed to halve the response being measured. High values mean weaker potency in that assay, low ones greater potency in that assay. The term Km denotes the substrate concentration at which the rate is half of its maximum.

Data on 36 molecules can be found in patent publication US20080096907A1, “Aryl, Pyrimidyl Compounds, Pharmaceutical Compositions Comprising them, Their Use as Antimicrobial Agents” (INSTITUT PASTEUR, priority 2004, published 2008).

Converted amounts (≈) assume the structure as drawn. Where two headings read alike, the source gives them in different places. Bounds are passed on as bounds.

Data set [1] has as its target TMPKmt (M. tuberculosis TMPK) (Mycobacterium tuberculosis, UniProt P9WKE1). The data set can be described thus: biochemical. Type of data set: biochemical.
For data set [2], the system named is Mycobacterium tuberculosis H37Ra. In words: IC50 on cultures of Mycobacterium tuberculosis H37Ra. Format: cell-based. The text has this: The IC50 value for three compounds has been measured on cultures of Mycobacterium tuberculosis H37Ra.
For data set [3], the system named is VERO cells. The data set can be described thus: cytotoxicity on VERO cells. Format: cell-based. On the procedure:
Cytotoxicity: The molecule 22 has been tested for its cytotoxicity on VERO cells. It has been determined that no growth inhibition, and consequently no cytotoxic activity, could be detected up to a concentration of 250 μg/ml of compound 22.

Data set [4] relates to Cc1cn([C@H]2C[C@H](O)[C@@H](COP(=O)(O)O)O2)c(=O)[nH]c1=O. The data set can be described thus: purified protein, by the assay type. The following applies: other: substrate Km; pH 7.4; 30.0 °C.
Substrate in data set [5]: Cc1cn([C@H]2C[C@H](O)[C@@H](COP(=O)(O)O)O2)c(=O)[nH]c1=O
In words: purified protein, by the assay type. The note with it: other: substrate Km; pH 7.4; 30.0 °C. This is another data set of the same source.

Setting [6] is: pH 7.4, read-out: TMPKmt W1002 Ki.

Chain of TMPKmt (M. tuberculosis TMPK) (P9WKE1 whole entry, looked up): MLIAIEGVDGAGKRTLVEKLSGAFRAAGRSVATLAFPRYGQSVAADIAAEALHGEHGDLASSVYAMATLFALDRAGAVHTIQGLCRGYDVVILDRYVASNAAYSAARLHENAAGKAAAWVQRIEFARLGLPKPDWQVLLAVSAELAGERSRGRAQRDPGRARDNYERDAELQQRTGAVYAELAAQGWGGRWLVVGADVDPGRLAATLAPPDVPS

Turning to `Cc1cn(Cc2ccc(CCC(N)=O)cc2)c(=O)[nH]c1=O` [Compound 1, 3-[4-(5-Methyl-2,4-dioxo-3,4-dihydro-2H-pyrimidin-1-ylmethyl)-phenyl]-propionamide], the Ki in data set [1] (setting [6]) turned out to be 110 µM.
The same measure, in the same setting: the result for `Cc1cn(Cc2ccc(CCC(=O)O)cc2)c(=O)[nH]c1=O` [Compound 2, 3-[4-(5-Methyl-2,4-dioxo-3,4-dihydro-2H-pyrimidin-1-ylmethyl)-phenyl]-propionic acid] reads 68 µM; that for `Cc1cn(Cc2ccccc2)c(=O)[nH]c1=O` [Compound 3, 5-Methyl-1-Benzyl-1H-pyrimidine-2,4-dione], 75 µM; that for `O=c1[nH]c(=O)n(Cc2ccccc2)cc1Br` [Compound 4, 5-Bromo-1-benzyl-1H-pyrimidine-2,4-dione], 44 µM.
`Cc1cn(Cc2ccc(F)cc2)c(=O)[nH]c1=O` [Compound 6, 5-Methyl-1-(4-fluoro-benzyl)-1H-pyrimidine-2,4-dione]: the Ki in data set [1] (setting [6]) amounted to 45 µM.
`Cc1cn(Cc2cccc(F)c2)c(=O)[nH]c1=O` [Compound 7, 5-Methyl-1-(3-fluoro-benzyl)-1H-pyrimidine-2,4-dione]: the Ki in data set [1] (setting [6]) came to 90 µM.
For `Cc1cn(Cc2ccc(F)c(F)c2)c(=O)[nH]c1=O` [Compound 8, 5-Methyl-1-(3,4-difluoro-benzyl)-1H-pyrimidine-2,4-dione], the Ki in data set [1] (setting [6]) is 67 µM.
The same measure, in the same setting: the result for `Cc1cn(Cc2ccc(Cl)cc2)c(=O)[nH]c1=O` [Compound 9, 5-Methyl-1-(4-chloro-benzyl)-1H-pyrimidine-2,4-dione] reads 50 µM; that for `Cc1cn(Cc2cccc(Cl)c2)c(=O)[nH]c1=O` [Compound 10, 5-Methyl-1-(3-chloro-benzyl)-1H-pyrimidine-2,4-dione], 44 µM.
For `Cc1cn(Cc2ccc(Br)cc2)c(=O)[nH]c1=O` [Compound 11, 5-Methyl-1-(4-bromo-benzyl)-1H-pyrimidine-2,4-dione], in data set [1] (setting [6]), the Ki came out at 38 µM.
Take `N#Cc1cn(Cc2ccccc2)c(=O)[nH]c1=O` [Compound 12]: the Ki in data set [1] (setting [6]) is 980 µM.
Consider `N#Cc1cn(Cc2cccc(Cl)c2)c(=O)[nH]c1=O` [Compound 13], for which the Ki in data set [1] (setting [6]) worked out at 810 µM.
Same read-out and setting: next, `Cc1cn(Cc2ccc(C=CC(N)=O)cc2)c(=O)[nH]c1=O` [Compound 14, 3-[4-(5-Methyl-2,4-dioxo-3,4-dihydro-2H-pyrimidin-1-ylmethyl)-phenyl]-acrylamide]: 240 µM; `CCOC(=O)CCc1ccc(Cn2cc(C)c(=O)[nH]c2=O)cc1` [Compound 19, 3-[4-(5-Methyl-2,4-dioxo-3,4-dihydro-2H-pyrimidin-1-ylmethyl)-phenyl]-propionic acid ethyl ester]: 265 µM.
`Cc1cn(Cc2ccc(CCCC(=O)O)cc2)c(=O)[nH]c1=O` [Compound 20, 4-[4-(5-Methyl-2,4-dioxo-3,4-dihydro-2H-pyrimidin-1-yl-methyl)-phenyl]-butyric acid]: the Ki in data set [1] (setting [6]) was found to be 16.5 µM. This molecule also showed an IC50 in data set [2] of 100 µg/mL (≈ 331 µM).
`O=C(O)CCCc1ccc(Cn2cc(Br)c(=O)[nH]c2=O)cc1` [Compound 21, 4-[5-Bromo-(2,4-dioxo-3,4-dihydro-2H-pyrimidin-1-ylmethyl)-phenyl]butyric acid] registered an IC50 in data set [2] of 50 µg/mL (≈ 136 µM).
As for `Cc1cn(Cc2ccc(CCCCCC(=O)O)cc2)c(=O)[nH]c1=O` [Compound 22, 6-[4-(5-Methyl-2,4-dioxo-3,4-dihydro-2H-pyrimidin-1-yl-methyl)-phenyl]-hexanoic acid], in data set [1] (setting [6]), the Ki turned out to be 32 µM. The molecule also registered an IC50 in data set [2] of 25 µg/mL (≈ 75.7 µM). Also, the “concentration up to which no growth inhibition / no cytotoxic activity could be detected” value in data set [3] is above 250 µg/mL.
Regarding `Cc1cn(Cc2ccc(C#CCCO)cc2)c(=O)[nH]c1=O` [Compound 30, 1-[4-(4-Hydroxy-but-1-ynyl)-benzyl]-5-methyl-1H-pyrimidine-2,4-dione], the Ki in data set [1] (pH 7.4, read-out: Ki) amounted to 86 µM.
With `Cc1cn(Cc2ccc(CCCCO)cc2)c(=O)[nH]c1=O` [Compound 31, 1-[4-(4-Elydroxy-butyl)-benzyl]-5-methyl-1H-pyrimidine-2,4-dione], the Ki in data set [1] (pH 7.4, read-out: Ki) is 63 µM.
Still for that read-out and setting: the result for `O=C(O)CCCc1ccc(Cn2cc(Cl)c(=O)[nH]c2=O)cc1` [Compound 39] reads 15 µM; that for `COC(=O)CCCc1ccc(Cn2cc(C)c(=O)[nH]c2=O)cc1` [Compound 40a], 70 µM.
The same measure, in the same setting: the result for `Cc1cn(Cc2ccc(CCCC(N)=O)cc2)c(=O)[nH]c1=O` [Compound 40b] reads 139 µM; that for `Cc1cn(Cc2ccc(CCCCC(=O)O)cc2)c(=O)[nH]c1=O` [Compound 45, 5-[4-(5-Methyl-2,4-dioxo-3,4-dihydro-2H-pyrimidin-1-yl-methyl)-phenyl]-pentanoic acid], 72 µM; that for `O=C(O)CCCCc1ccc(Cn2cc(Br)c(=O)[nH]c2=O)cc1` [Compound 48, 5-[4-(5-Bromo-2,4-dioxo-3,4-dihydro-2H-pyrimidin-1-yl-methyl)-phenyl]-pentanoic acid], 47 µM.
The same measure, in the same setting: the result for `Cc1cn(Cc2ccc(C#CCCCC(=O)O)cc2)c(=O)[nH]c1=O` [Compound 51, 6-[4-(5-Methyl-2,4-dioxo-3,4-dihydro-2H-pyrimidin-1-yl-methyl)-phenyl]-hexyn-5-oic acid] reads 119 µM.
As for `Cc1cn(Cc2ccc(C#CCCCC(N)=O)cc2)c(=O)[nH]c1=O` [Compound 53, 6-[4-(5-Methyl-2,4-dioxo-3,4-dihydro-2H-pyrimidin-1-yl-methyl)-phenyl]-hexyn-5-oic acid amide], in data set [1] (pH 7.4, read-out: Ki), the Ki stood at 113 µM.
On the same count and under the same terms, next, `Cc1cn(Cc2ccc(CCCCCC(N)=O)cc2)c(=O)[nH]c1=O` [Compound 54, 6-[4-(5-Methyl-2,4-dioxo-3,4-dihydro-2H-pyrimidin-1-yl-methyl)-phenyl]-hexanoic acid amide]: 33 µM; `O=C(O)CCCCCc1ccc(Cn2cc(Br)c(=O)[nH]c2=O)cc1` [Compound 58, 6-[4-(5-Bromo-2,4-dioxo-3,4-dihydro-2H-pyrimidin-1-yl-methyl)-phenyl]-hexanoic acid]: 42 µM.
As for `O=C(O)CCCCCc1ccc(Cn2cc(Cl)c(=O)[nH]c2=O)cc1` [Compound 59, 6-[4-(5-Chloro-2,4-dioxo-3,4-dihydro-2H-pyrimidin-1-yl-methyl)-phenyl]-hexanoic acid], the Ki in data set [1] turned out to be 49 µM.
As for `NC(=O)CCCCCc1ccc(Cn2cc(Br)c(=O)[nH]c2=O)cc1` [Compound 61, 6-[4-(5-Bromo-2,4-dioxo-3,4-dihydro-2H-pyrimidin-1-yl-methyl)-phenyl]-hexanoic acid amide], the Ki in data set [1] (pH 7.4, read-out: Ki) came out at 24 µM.
In data set [1], `NC(=O)CCCCCc1ccc(Cn2cc(Cl)c(=O)[nH]c2=O)cc1` [Compound 62, 6-[4-(5-Chloro-2,4-dioxo-3,4-dihydro-2H-pyrimidin-1-yl-methyl)-phenyl]-hexanoic acid amide] returned a Ki of 32 µM.
Turning to `Cc1cn(Cc2ccc(CSCC(=O)O)cc2)c(=O)[nH]c1=O` [Compound 63, 3-[4-(5-Methyl-2,4-dioxo-3,4-dihydro-2H-pyrimidin-1-ylmethyl)-benzylsulfanyl]-acetic acid], in data set [1] (pH 7.4, read-out: Ki), the Ki stood at 15 µM.
`Cc1cn(Cc2ccc(CC(F)CC=O)cc2)c(=O)[nH]c1=O` (stereo not drawn) [Compound 64, 3-Fluoro-4-[4-(5-methyl-2,4-dioxo-3,4-dihydro-2H-pyrimidin-1-yl-methyl)-phenyl]-butyraldehyde] gave an inhibition constant (Ki) in data set [1] of 26 µM.
In turn, `Cc1cn(Cc2ccc(CC(F)CC(=O)O)cc2)c(=O)[nH]c1=O` (stereo not drawn) [Compound 65, 3-Fluoro-4-[4-(5-Methyl-2,4-dioxo-3,4-dihydro-2H-pyrimidin-1-yl-methyl)-phenyl]-butyric acid] returned a Ki in data set [1] of 63 µM.
For the molecule “TMPKmt (M. tuberculosis TMPK) (Mycobacterium tuberculosis H37Rv)”, the Km in data set [4] came out at 4.5 µM.

B1: TMPKh (human TMPK) (Homo sapiens) (protein)
chain: MAARRGALIVLEGVDRAGKSTQSRKLVEALCAAGHRAELLRFPERSTEIGKLLSSYLQKKSDVEDHSVHLLFSANRWEQVPLIKEKLSQGVTLVVDRYAFSGVAFTGAKENFSLDWCKQPDVGLPKPDLVLFLQLQLADAAKRGAFGHERYENGAFQERALRCFHQLMKDTTLNWKMVDASKSIEAVHEDIRVLSEDAIRTATEKPLGELWK
For the molecule B1, in data set [5], the Km stood at 5 µM.
